The source of these data is patent publication US20250320206A1, “STAT6 DEGRADERS” (Gilead Sciences, Inc., priority 2024, published 2025).

Each structure is given as a SMILES string.

The target in one assay is T1, STAT6 (Homo sapiens, UniProt P42226).
T1 construct: These cells express endogenous STAT6; host or cells: HeLa LgBiT clone 4.14
T1 sequence (P42226 1-847): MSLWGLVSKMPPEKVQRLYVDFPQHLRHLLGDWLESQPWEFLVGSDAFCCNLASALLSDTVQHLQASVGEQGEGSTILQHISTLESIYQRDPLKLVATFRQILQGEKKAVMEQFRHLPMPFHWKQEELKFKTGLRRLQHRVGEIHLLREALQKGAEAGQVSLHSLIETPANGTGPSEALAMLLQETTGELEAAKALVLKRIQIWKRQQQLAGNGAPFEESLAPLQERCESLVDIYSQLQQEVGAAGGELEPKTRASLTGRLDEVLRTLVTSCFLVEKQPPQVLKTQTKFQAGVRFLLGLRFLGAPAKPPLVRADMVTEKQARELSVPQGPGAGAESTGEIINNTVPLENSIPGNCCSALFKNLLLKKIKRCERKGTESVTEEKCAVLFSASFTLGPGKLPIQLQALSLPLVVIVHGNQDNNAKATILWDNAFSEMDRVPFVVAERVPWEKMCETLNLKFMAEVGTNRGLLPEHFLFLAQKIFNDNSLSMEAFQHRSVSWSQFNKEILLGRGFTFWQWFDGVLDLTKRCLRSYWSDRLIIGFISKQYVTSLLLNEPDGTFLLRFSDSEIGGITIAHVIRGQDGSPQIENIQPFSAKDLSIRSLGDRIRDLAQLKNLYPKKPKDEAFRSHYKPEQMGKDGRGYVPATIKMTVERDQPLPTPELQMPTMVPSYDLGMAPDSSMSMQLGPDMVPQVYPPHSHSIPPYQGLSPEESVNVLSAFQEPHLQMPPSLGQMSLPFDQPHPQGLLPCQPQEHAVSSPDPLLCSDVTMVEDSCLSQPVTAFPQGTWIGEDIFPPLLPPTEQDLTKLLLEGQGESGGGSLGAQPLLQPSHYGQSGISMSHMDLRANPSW
Nature of the assay: Stat6 Degrader Assay (HiBiT based, HeLa LgBiT clone 4.14). Type of assay: cell-based. To be noted: HeLa LgBiT clone 4.14 HiBiT-STAT6, 4-24 h incubation; values given for compounds with >80% Emax; geometric mean; read-out: STAT6 degradation DC50. In outline: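 Luminescence from HiBiT-STAT6 complementing stably expressed LgBiT in HeLa clone 4.14 reports remaining STAT6 protein. Cells (5000/well) exposed to compound for 4-24 h at 37° C; read 0.5 h after Nano-Glo addition. 100% degradation window set with 50 μM terfenadine; percent degradation plotted against concentration.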

The test system of assay [1] is Eotaxin-3 release in human whole blood stimulated with IL-4. Nature of the assay: Human Whole Blood Eotaxin-3 Assay (IL-4 stimulated eotaxin-3 release). Type of assay: cell-based. To be noted: IL-4 stimulation, 48 h, values given for compounds with >80% Emax, geometric mean. Summed up:
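Eotaxin-3 (CCL26) release measured by MSD kit in plasma supernatant after 48 h IL-4 stimulation ([…]) of human whole blood. Compounds added in triplicate 4-fold dilutions 2 h before stimulation; 0.5% DMSO final, 37° C, 5% CO2.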

One may read the DC50 as the concentration giving 50% degradation. One may read the EC50 as the midpoint of the concentration-response curve. On to `CNc1cc(=O)n(-c2ccnc3c2cc([C@H](C)N2CC=C(c4c(C)cc(C(=O)N5CCC(CN6CCN(Cc7ccc8c(c7)n(C7CC7)c(=O)n8C7CCC(=O)NC7=O)C[C@@H]6C)CC5)cc4F)CC2)n3C)cc1F` (stereo partly drawn) [Example 3u118, 3-(3-cyclopropyl-5-(((S)-4-((1-(3-fluoro-4-(1-((S)-1-(4-(5-fluoro-4-(methylamino)-2-oxopyridin-1 (2H)-yl)-1-methyl-1H-pyrrolo[2,3-b]pyridin-2-yl)ethyl)-1,2,3,6-tetrahydropyridin-4-yl)-5-methylbenzoyl)piperidin-4-yl)methyl)-3-methylpiperazin-1-yl)methyl)-2-oxo-2,3-dihydro-1H-benzo[d]imidazol-1-yl)piperidine-2,6-dione], for which, on STAT6, the DC50 came to 1.2 nM. The same molecule displayed an EC50 in assay [1] of 2.2 nM.
The like results for `Cc1cc(C(=O)N2CCC(CN3CCN(Cc4ccc5c(c4)C4(CC4)C(=O)N5C4CCC(=O)NC4=O)C[C@@H]3C)CC2)cc(F)c1C1=CCN([C@@H](C)c2cc3c(-n4cc(F)c(N)c(F)c4=O)ccnc3n2C)CC1` (stereo partly drawn) [Example 3u121, 3-(5′-(((S)-4-((1-(4-(1-((S)-1-(4-(4-amino-3,5-difluoro-2-oxopyridin-1 (2H)-yl)-1-methyl-1H-pyrrolo[2,3-b]pyridin-2-yl)ethyl)-1,2,3,6-tetrahydropyridin-4-yl)-3-fluoro-5-methyl-benzoyl)piperidin-4-yl)methyl)-3-methylpiperazin-1-yl)methyl)-2′-oxospiro[cyclopropane-1,3′-indolin]-1′-yl)piperidine-2,6-dione] were, in that order, 2.5 nM and 2 nM.
As to `CNc1ccn(-c2ccnc3c2cc([C@H](C)N2CC=C(c4c(C)cc(C(=O)N5CCC(CN6CCN(Cc7ccc8c(c7)n(C7CC7)c(=O)n8C7CCC(=O)NC7=O)CC6)CC5)cc4F)CC2)n3C)c(=O)c1` (stereo partly drawn) [Example 3u122, 3-(3-cyclopropyl-5-((4-((1-(3-fluoro-5-methyl-4-(1-((S)-1-(1-methyl-4-(4-(methylamino)-2-oxopyridin-1 (2H)-yl)-1H-pyrrolo[2,3-b]pyridin-2-yl)ethyl)-1,2,3,6-tetrahydropyridin-4-yl)benzoyl)piperidin-4-yl)methyl)piperazin-1-yl)methyl)-2-oxo-2,3-dihydro-1H-benzo[d]imidazol-1-yl)piperidine-2,6-dione], the DC50 on STAT6 is 1.2 nM. This molecule gave an EC50 in assay [1] of 0.6 nM.
Consider `CNc1ccn(-c2ccnc3c2cc([C@H](C)N2CC=C(c4c(C)cc(C(=O)N5CCC(CN6CCN(Cc7ccc8c(c7)C7(CC7)C(=O)N8C7CCC(=O)NC7=O)C[C@@H]6C)CC5)cc4F)CC2)n3C)c(=O)n1` (stereo partly drawn) [Example 3u125, 3-(5′-(((S)-4-((1-(3-fluoro-5-methyl-4-(1-((S)-1-(1-methyl-4-(4-(methylamino)-2-oxopyrimidin-1 (2H)-yl)-1H-pyrrolo[2,3-b]pyridin-2-yl)ethyl)-1,2,3,6-tetrahydropyridin-4-yl)benzoyl)piperidin-4-yl)methyl)-3-methylpiperazin-1-yl)methyl)-2′-oxospiro[cyclopropane-1,3′-indolin]-1′-yl)piperidine-2,6-dione], for which the DC50 on STAT6 was 0.8 nM. In assay [1], this molecule had an EC50 of 0.6 nM.
As for `CN(C(=O)c1cc(F)c(C2CCN(Cc3cc4c(-n5cc(F)c6c(c5=O)CCN6)ccnc4n3C)CC2)c(F)c1)c1ccc(C2CCN(Cc3ccc4c(c3)n(C)c(=O)n4C3CCC(=O)NC3=O)CC2)cc1` (centres unmarked) [Example 3u126, N-(4-(1-((1-(2,6-dioxopiperidin-3-yl)-3-methyl-2-oxo-2,3-dihydro-1H-benzo[d]imidazol-5-yl)methyl)piperidin-4-yl)phenyl)-3,5-difluoro-4-(1-((4-(7-fluoro-4-oxo-1,2,3,4-tetrahydro-5H-pyrrolo[3,2-c]pyridin-5-yl)-1-methyl-1H-pyrrolo[2,3-b]pyridin-2-yl)methyl)piperidin-4-yl)-N-methylbenzamide], the DC50 on STAT6 is 0.4 nM. For the same molecule, in assay [1], it took 0.2 nM to reach a half-maximal effect (EC50).
The like results for `C[C@H]1CN(Cc2ccc3c(c2)C2(CC2)C(=O)N3[C@@H]2CCC(=O)NC2=O)CCN1CC1CCN(C(=O)c2cc(F)c(C3=CCN([C@@H](C)c4cc5c(-n6cc(F)c7c(c6=O)CCN7)ccnc5n4C)CC3)c(F)c2)CC1` [Example 3u127, (R)-3-(5′-(((S)-4-((1-(3,5-difluoro-4-(1-((S)-1-(4-(7-fluoro-4-oxo-1,2,3,4-tetrahydro-5H-pyrrolo[3,2-c]pyridin-5-yl)-1-methyl-1H-pyrrolo[2,3-b]pyridin-2-yl)ethyl)-1,2,3,6-tetrahydropyridin-4-yl)benzoyl)piperidin-4-yl)methyl)-3-methylpiperazin-1-yl)methyl)-2′-oxospiro[cyclopropane-1,3′-indolin]-1′-yl)piperidine-2,6-dione] were, in that order, 5.4 nM and 14.8 nM.
Take `CNc1cc(=O)n(-c2ccnc3c2cc([C@H](C)N2CC=C(c4c(F)cc(C(=O)N5CCC(CN6CCN(Cc7ccc8c(c7)n(C7CC7)c(=O)n8C7CCC(=O)NC7=O)C[C@@H]6C)CC5)cc4F)CC2)n3C)cc1F` (stereo partly drawn) [Example 3u128, 3-(3-cyclopropyl-5-(((S)-4-((1-(3,5-difluoro-4-(1-((S)-1-(4-(5-fluoro-4-(methylamino)-2-oxopyridin-1 (2H)-yl)-1-methyl-1H-pyrrolo[2,3-b]pyridin-2-yl)ethyl)-1,2,3,6-tetrahydropyridin-4-yl)benzoyl)piperidin-4-yl)methyl)-3-methylpiperazin-1-yl)methyl)-2-oxo-2,3-dihydro-1H-benzo[d]imidazol-1-yl)piperidine-2,6-dione]: the DC50 on STAT6 was determined as 1.1 nM. The molecule further registered an EC50 in assay [1] of 1.6 nM.
The like results for `Cc1cc(C(=O)N2CCC(CN3CCN(Cc4ccc5c(c4)n(C)c(=O)n5C4CCC(=O)NC4=O)C[C@@H]3C)CC2)cc(F)c1C1=CCN([C@@H](C)c2cc3c(-n4ccc5c(c4=O)CCN5)ccnc3n2C)CC1` (stereo partly drawn) [Example 3u137, 3-(5-(((S)-4-((1-(3-fluoro-5-methyl-4-(1-((S)-1-(1-methyl-4-(4-oxo-1,2,3,4-tetrahydro-5H-pyrrolo[3,2-c]pyridin-5-yl)-1H-pyrrolo[2,3-b]pyridin-2-yl)ethyl)-1,2,3,6-tetrahydropyridin-4-yl)benzoyl)piperidin-4-yl)methyl)-3-methylpiperazin-1-yl)methyl)-3-methyl-2-oxo-2,3-dihydro-1H-benzo[d]imidazol-1-yl)piperidine-2,6-dione] were, in that order, 0.2 nM and 0.4 nM.
The like results for `Cc1cc(C(=O)N2CCC(CN3CCN(Cc4ccc5c(c4)n(C4CC4)c(=O)n5C4CCC(=O)NC4=O)CC3)CC2)cc(F)c1C1=CCN([C@@H](C)c2cc3c(-n4ccc5c(c4=O)CCN5)ccnc3n2C)CC1` (stereo partly drawn) [Example 3u140, 3-(3-cyclopropyl-5-((4-((1-(3-fluoro-5-methyl-4-(1-((S)-1-(1-methyl-4-(4-oxo-1,2,3,4-tetrahydro-5H-pyrrolo[3,2-c]pyridin-5-yl)-1H-pyrrolo[2,3-b]pyridin-2-yl)ethyl)-1,2,3,6-tetrahydropyridin-4-yl)benzoyl)piperidin-4-yl)methyl)piperazin-1-yl)methyl)-2-oxo-2,3-dihydro-1H-benzo[d]imidazol-1-yl)piperidine-2,6-dione] were, in that order, 1.4 nM and 1 nM.
The like results for `Cc1cc(C(=O)N2CCC(CN3CCN(Cc4cc5c(cc4F)n(C4CCC(=O)NC4=O)c(=O)n5C4CC4)CC3)CC2)cc(F)c1C1=CCN([C@@H](C)c2cc3c(-n4ccc5c(c4=O)CCN5)ccnc3n2C)CC1` (stereo partly drawn) [Example 3u146, 3-(3-cyclopropyl-6-fluoro-5-((4-((1-(3-fluoro-5-methyl-4-(1-((S)-1-(1-methyl-4-(4-oxo-1,2,3,4-tetrahydro-5H-pyrrolo[3,2-c]pyridin-5-yl)-1H-pyrrolo[2,3-b]pyridin-2-yl)ethyl)-1,2,3,6-tetrahydropyridin-4-yl)benzoyl)piperidin-4-yl)methyl)piperazin-1-yl)methyl)-2-oxo-2,3-dihydro-1H-benzo[d]imidazol-1-yl)piperidine-2,6-dione] were, in that order, 1.7 nM and 1.4 nM.
